# Where a name gives a salt, the structure may show the parent alone.
# Legend:
# [1] = target: T1, human histamine H4 receptor (Homo sapiens, UniProt Q9H3N8); assay: Evaluation of H4 Receptor Function ([35S]GTPγS binding); assay type: biochemical; details: [35S]GTPγS binding, CHO-K1 membrane, 0.1 μM histamine; read-out: Evaluation of H4 Receptor Function (IC50 value, antagonistic effect)
# T1 construct: purchased PerkinElmer Inc; host or cells: CHO-K1
# Description: The antagonistic effect was evaluated by the method described below. Membrane preparation from recombinant CHO-K1 cell expressing the human histamine H4 receptor (PerkinElmer Inc.), 10 μM GDP, 0.1 μM histamine, and the compounds dissolved in DMSO were reacted at 30° C. for 20 minutes in a buffering solution containing 20 mM HEPES, pH 7.4, 100 mM NaCl, 10 mM MgCl2, 1 mM DTT, and 1 mM EDTA on an assay plate. Thereafter, SPA beads (Amersham plc) were added, followed by incubation for 60 minutes, and further 0.3 nM [^35S]GTPγS (PerkinElmer Inc.) was added, followed by incubation for 30 minutes.
# [2] = target: T2, human histamine H1 receptor (Homo sapiens, UniProt P35367); assay: Evaluation of Human H1 Receptor Function (GeneBLAzer H1-NFAT-bla HEK 293T cells); assay type: cell-based; details: histamine 30 nM, read-out: Evaluation of H1 Receptor Function (IC50 value, antagonistic effect)
# Description: Test Example 3: Evaluation of Human H1 Receptor Function
# The antagonistic effect was evaluated by the method described below. GeneBLAzer® H1-NFAT-bla HEK 293T-cells (Invitrogen Corporation, recombinant cells expressing the human histamine H1 receptor) were incubated at 37° C. for 30 minutes in the presence of the test compounds dissolved in DMSO in a high glucose Dulbecco's Modified Eagle Medium (GlutaMAX, containing 10% fetal bovine serum, 100 μM nonessential amino acids, 25 mM HEPES, 100 U/mL penicillin, and 100 μg/mL streptomycin), and histamine was added such that the final concentration became 30 nM, followed by further incubation for 4.5 hours. Then, a mixture of LiveBLAzer™ FRET-B/G Loading Kit (Invitrogen Corporation) and Solution D (Invitrogen Corporation) was added, followed by leaving to stand at room temperature for 2 hours under shaded conditions. Thereafter, the fluorescence intensity was measured under two conditions of 400 nm/460 nm and 400 nm/535 nm (excitation light/fluorescence) by using a multilabel counter (EnVision: PerkinElmer Inc.). The 50% inhibitory concentration (IC50 value) was calculated in accordance with (measured value−blank measured value at 400 nm/460 nm)/(measured value−blank measured value at 400 nm/535 nm) of each test sample.
# [3] = target: T2, human histamine H1 receptor; assay: Evaluation of Human H1 Receptor Affinity ([3H]pyrilamine binding); design: purchased PerkinElmer Inc; host or cells: CHO-K1; details: inhibition constant Ki, CHO-K1 membrane preparation
# Summary of the method: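 Ki values are Cheng-Prusoff conversions of IC50 (Kd 1.1 nM) from radioligand displacement of 1.2 nM [3H]pyrilamine, with 1.0 μM pyrilamine defining nonspecific binding.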
# [4] = target: T1, human histamine H4 receptor; assay: Evaluation of Human H4 Receptor Affinity ([3H]histamine binding); details: inhibition constant Ki, CHO-K1 membrane preparation, read-out: Evaluation of H4 Receptor Affinity
# Summary of the method: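 Membranes from CHO-K1 cells expressing human H4 receptor incubated with 8.2 nM [3H]histamine and compound for 90 min at 25 °C in 50 mM Tris-HCl pH 7.4, 1.25 mM EDTA, then filtered and counted. Nonspecific binding defined with 1.0 μM histamine; Ki from IC50 by Cheng-Prusoff using Kd 5.7 nM.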
# T2 sequence (P35367 whole entry): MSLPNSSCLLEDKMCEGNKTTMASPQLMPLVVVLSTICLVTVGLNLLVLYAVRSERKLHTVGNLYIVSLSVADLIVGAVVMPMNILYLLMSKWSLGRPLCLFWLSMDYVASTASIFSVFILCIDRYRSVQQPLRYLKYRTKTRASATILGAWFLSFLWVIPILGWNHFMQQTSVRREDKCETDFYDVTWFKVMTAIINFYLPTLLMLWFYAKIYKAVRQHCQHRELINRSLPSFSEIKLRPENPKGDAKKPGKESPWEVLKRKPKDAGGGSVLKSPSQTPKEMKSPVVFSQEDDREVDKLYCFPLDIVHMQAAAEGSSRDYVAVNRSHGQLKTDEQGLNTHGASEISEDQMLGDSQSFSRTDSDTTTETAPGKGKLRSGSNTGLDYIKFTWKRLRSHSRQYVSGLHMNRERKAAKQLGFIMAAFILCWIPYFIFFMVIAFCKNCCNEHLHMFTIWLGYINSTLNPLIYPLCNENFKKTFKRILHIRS
Compound,IC50 [1] [nM],IC50 [2] [nM],Ki [3] [nM],Ki [4] [nM]
"CC(C)(OCCOCCN1CCN(c2nc(N)nc3c2CCc2cc(OCc4ccc(Cl)cc4)ccc2-3)CC1)C(=O)O [Example 122, 2-(2-(2-(4-(2-amino-8-((4-chlorobenzyl)oxy)-5,6-dihydrobenzo[h]quinazolin-4-yl)piperazin-1-yl)ethoxy)ethoxy)-2-methylpropanoic acid]",200 to 2000,< 200,< 100,100 to 500
"Nc1nc2c(c(N3CCN(CCOCC4CC5(C4)CC(C(=O)O)C5)CC3)n1)CCc1cc(OCc3ccc(Cl)cc3)ccc1-2 (stereo not shown) [Example 152, 6-((2-(4-(2-amino-8-((4-chlorobenzyl)oxy)-5,6-dihydrobenzo[h]quinazolin-4-yl)piperazin-1-yl)ethoxy)methyl)spiro[3.3]heptane-2-carboxylic acid hydrochloride]",200 to 2000,< 200,< 100,< 100
"CN1CCN(c2nc(N)nc3c2Cc2ccc(OCc4ccccc4)cc2-3)CC1 [Example 201, 8-(benzyloxy)-4-(4-methylpiperazin-1-yl)-5H-indeno[1,2-d]pyrimidin-2-amine]",< 200,< 200,< 100,< 100

# Other lines, results leading:
IC50 [1] [nM],IC50 [2] [nM],Ki [3] [nM],Ki [4] [nM],Compound
< 200,< 200,< 100,< 100,"Nc1nc2c(c(N3CCN(CCOCCOCC(=O)O)CC3)n1)CCc1cc(OCc3ccc(OC(F)(F)F)cc3)ccc1-2 [Example 143, 2-(2-(2-(4-(2-amino-8-((4-(trifluoromethoxy)benzyl)oxy)-5,6-dihydrobenzo[h]quinazolin-4-yl)piperazin-1-yl)ethoxy)ethoxy)acetic acid formate]"
< 200,< 200,< 100,< 100,"Nc1nc2c(c(N3CCN(CCOCCSCC(=O)O)CC3)n1)CCc1cc(OCc3ccc(OC(F)(F)F)cc3)ccc1-2 [Example 178, 2-((2-(2-(4-(2-amino-8-((4-(trifluoromethoxy)benzyl)oxy)-5,6-dihydrobenzo[h]quinazolin-4-yl)piperazin-1-yl)ethoxy)ethyl)thio)acetic acid]"
< 200,< 200,< 100,< 100,"[2H]C([2H])(C(=O)O)[C@H]1C[C@@H](OCCN2CCN(c3nc(N)nc4c3CCc3cc(OCc5ccc(OC(F)(F)F)cc5)ccc3-4)CC2)C1 [Example 184, cis-2-(3-(2-(4-(2-amino-8-((4-(trifluoromethoxy)benzyl)oxy)-5,6-dihydrobenzo[h]quinazolin-4-yl)piperazin-1-yl)ethoxy)cyclobutyl)acetic-c-2,2-d2 acid]"
< 200,< 200,< 100,< 100,"CN1CCN(c2nc(N)nc3c2CCc2cc(OCc4ccc(F)cc4)ccc2-3)CC1 [Example 196, 8-((4-fluorobenzyl)oxy)-4-(4-methylpiperazin-1-yl)-5,6-dihydrobenzo[h]quinazolin-2-amine]"
